The text below walks through data of publication PMC2409895, “Antitumour efficacy of VEGFR2 tyrosine kinase inhibitor correlates with expression of VEGF and its receptor VEGFR2 in tumour models” (British Journal of Cancer, 2004).

What is called IC50 is the concentration at which inhibition is half-maximal.

For assay [1], the system named is HUVEC grown in presence of bFGF. Put plainly: bFGF-induced HUVEC proliferation (BrdU incorporation). It is filed as cell-based. The note with it: Homo sapiens, bFGF 0.3 ng ml^−1, 72 h. How it is done:
(§1) Effect of kinase inhibitors on cell proliferation was measured using BrdU incorporation method using commercially available kits (Roche Diagnostics, Indianapolis, IN, USA). Briefly, HUVEC were seeded in a medium containing 5% FBS in type 1 Collagen-coated 96-well plates and incubated overnight at 37°C, 5% CO2. The medium was aspirated from the cells, and various concentrations of kinase inhibitors in serum-free medium were added to each well. After 30 min, VEGF (10 ng ml^−1) or bFGF (0.3 ng ml^−1) was added to the wells. Cells were incubated for an additional 72 h and BrdU (10 μM) was added during the last 18–24 h of incubation. Data were fitted with a curve described by the equation, y=Vmax × (1−(x/(K+x))), where K is equal to the IC50.
In general terms: Incorporation of labelled thymidine or its analogues reports DNA synthesis.

The target of assay [2] is T1, human VEGFR2 kinase (Homo sapiens, UniProt P35968).
T1 construct: GST-fusion protein encoding the catalytic carboxyl-terminus of human VEGFR kinase 1, 2, or 3; made in house; host or cells: baculovirus expression system
T1 sequence (P35968 834-1162 limits assumed): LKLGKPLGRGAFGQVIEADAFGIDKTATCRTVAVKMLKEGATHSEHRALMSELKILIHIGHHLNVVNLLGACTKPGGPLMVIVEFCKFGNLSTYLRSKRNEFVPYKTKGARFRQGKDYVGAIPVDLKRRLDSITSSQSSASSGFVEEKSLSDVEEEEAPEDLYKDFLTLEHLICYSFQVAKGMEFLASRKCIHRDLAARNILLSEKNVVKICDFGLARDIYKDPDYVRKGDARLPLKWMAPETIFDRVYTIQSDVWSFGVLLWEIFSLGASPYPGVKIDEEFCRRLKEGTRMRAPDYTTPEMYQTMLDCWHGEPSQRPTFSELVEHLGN
Put plainly: VEGFR2 kinase assay (HTRF). It is filed as biochemical. The settings on record: Table 1. How it is done:
Vascular endothelial growth factor receptor kinase assays were carried out in a homogenous time-resolved fluorescence (HTRF) format in 384-well microtitre plates using a purified, baculovirus-expressed GST-fusion protein encoding the catalytic carboxyl-terminus of human VEGFR kinase 1, 2, or 3. Reactions were initiated by the addition of 10 μl of activated VEGFR kinase (1 nM, 0.1 M HEPES pH 7.5, 0.1 mg ml^−1 BSA, and 0.30 mM DTT) to 10 μl of substrate (360 nM biotin-aminohexyl-EEEEYFELVAKKKK-NH2 peptide, 75 μM ATP, 10 mM MgCl2) and 1 μl of small molecule inhibitor at various concentrations. Plates were incubated at room temperature for 60 min, and the reaction was stopped by the addition of 20 μl 100 mM EDTA. Homogenous time-resolved fluorescence reagents (20 μl 15 nM streptavidin-linked allophycocyanin, 1 nM europium-labelled anti-phosphotyrosine antibody in 0.1 M HEPES, pH 7.5, 0.1 mg ml^−1 BSA) were added and plates were incubated for a minimum of 10 min. The fluorescence at 665 nm was measured with a Victor plate reader (Wallac, Shelton, CT, USA) using a time delay of 50 μs. […] Data were fitted with a curve described by: y=((Vmax × x)/(K+x)+Y2), where Vmax is the upper asymptote, Y2 is the Y intercept, and K is the IC50.
On the technique in general: In TR-FRET formats the signal depends on donor and acceptor labels being close together.

The subject of assay [3] is HUVEC grown in presence of VEGF. Briefly: VEGF-induced HUVEC proliferation (BrdU incorporation). It is filed as cell-based. The note with it: Homo sapiens, VEGF 10 ng ml^−1, 72 h. As to the method: as §1

For the molecule `COc1cc(Nc2nccc(Nc3ccc4c(C)n[nH]c4c3)n2)cc(OC)c1OC` [GW612286, N^4-(3-methyl-1H-indazol-6-yl)-N^2-(3,4,5-trimethoxyphenyl)pyrimidine-2,4-diamine], the IC50 in assay [1] was 3630 nM; in assay [2] it was 8 nM; in assay [3] it was 180 nM.

For `Cc1n[nH]c2cc(N(C)c3ccnc(Nc4cc(S(N)(=O)=O)ccc4Cl)n3)ccc12` [GW695612, 4-chloro-3-({4-[methyl(3-methyl-1H-indazol-6-yl)amino]pyrimidin-2-yl}amino)benzenesulphonamide], the IC50 is 3840 nM in assay [1], 1.1 nM in assay [2] and 260 nM in assay [3].
